Reference: US20210386709A1, “COMPOSITIONS AND METHODS FOR SUPPRESSING MSUT2” (United States Government As Represented By The Department …, priority 2020, published 2021)
Values belong to the molecule of their own block, whether it stands above or below them.

Legend:
PABPN1 = biological target: T1, PABPN1 (Homo sapiens, UniProt Q86U42); test: PABPN1 fluorescence polarization counter screen; assay type: binding
T1 construct: made in house; host or cells: E. coli BL21 (DE3)
T1 sequence (Q86U42 1-306): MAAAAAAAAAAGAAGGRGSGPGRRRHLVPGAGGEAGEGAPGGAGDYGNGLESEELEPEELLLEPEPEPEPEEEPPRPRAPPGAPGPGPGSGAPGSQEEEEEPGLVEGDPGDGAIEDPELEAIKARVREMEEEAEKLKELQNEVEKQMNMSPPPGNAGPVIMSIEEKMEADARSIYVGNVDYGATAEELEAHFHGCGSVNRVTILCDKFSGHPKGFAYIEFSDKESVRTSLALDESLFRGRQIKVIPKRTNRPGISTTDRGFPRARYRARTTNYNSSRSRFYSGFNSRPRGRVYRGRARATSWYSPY
Procedure: A drug repurposing strategy: screening of the NIH Clinical Collection compound library. […] The plan to find suitable lead compounds for drug repurposing began with a screen of the NIH Clinical Collection (NIHCC) library. The NIHCC consists of a diverse array of 700 compounds with historical pharmacological use and well-studied safety profiles. […] An orthogonal poly(A):MSUT2 binding assay allowed the ruling out of assay interference while selectivity against MSUT2 over PABPN1 was determined by a parallel FP assay with PABPN1 as the RBP. […] Thus, the goal was to eliminate compounds interfering with both PABN1 and MSUT2 and focus on compounds truly specific for poly(A):MSUT2 binding.
(§1) Identification and validation of MSUT2 inhibitory compounds from NIHCC library. […] IC50 of each of the previous 8 compounds was determined for PABPN1 using fluorescence polarization (FIG. 11), and a specificity ratio determined (Table 3). An Alpha Screen (AS) assay was developed as an orthogonal screen. Briefly, in this screen, biotinylated RNA binds streptavidin-coated donor beads, while GST-MSUT2 ZF binds glutathione-coated acceptor beads. When donor beads and acceptor beads are brought within close proximity of one another, laser excitation leads to fluorophore emission of the acceptor bead via excited singlet oxygen activating chemiluminescers in the acceptor beads. […] Toxicity of these compounds in a HEK cell model was determined using a standard Promega Cell Titer Glo assay.
(§2) Fluorescence Polarization Assay. […] of stock compound was transferred yielding 10 μM final concentration. […] Fluorescence polarization was calculated by first subtracting background from a buffer-only control well and then using the equation

[1] = in vivo; cited from earlier work
poly(A) = conditions: cited from earlier work
MSUT2 ZF = biological target: T2, MSUT2 ZF (Homo sapiens, UniProt Q6PJT7); test: Fluorescence polarization assay of FAM-poly(A) RNA:MSUT2 ZF binding
T2 construct: Targeted construct consisted of the c-terminal end (dark blue and amino acids 601-736) of MSUT2; made in house; host or cells: E. coli BL21 (DE3)
T2 sequence (Q6PJT7 601-736): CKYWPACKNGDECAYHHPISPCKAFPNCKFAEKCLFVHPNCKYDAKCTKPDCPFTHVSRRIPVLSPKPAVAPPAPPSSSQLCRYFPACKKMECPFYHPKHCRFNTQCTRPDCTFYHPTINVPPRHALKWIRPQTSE
Procedure: Fluorescence Polarization Assay. […] 2 μL of compound was transferred for a final concentration of 10 μM. […] Fluorescence polarization was calculated by first subtracting background from a buffer-only control well and then using the equation
Results and Discussion. A high-throughput fluorescence polarization assay for inhibition of poly(A):MSUT2 RNA interaction. […] In order to screen potential inhibitors of MSUT2 RBP and RNA by FP, fluorescent FAM (fluorescein amidite)-labeled poly(A)15 RNA (FAM-RNA) and recombinant MSUT2 ZF (zinc finger) protein expressing constructs were generated (FIG. 7a). […] Inhibition of the interaction results in unbound FAM-RNA tumbling at a relatively rapid rate and emitting non-polarized light (FIG. 7b).
To determine the concentrations of both MSUT2 ZF protein and FAM-RNA probe useful in the methods described herein, a two dimensional titration of protein and RNA concentrations in 96-well format was performed. […] Next, the binding constant between MSUT2 ZF and FAM-RNA was determined by holding FAM-RNA constant at 10 nM while increasing MSUT2 ZF concentration.
as §1, §2

GST-MSUT2 = biological target: T3, GST-MSUT2 (Homo sapiens, UniProt Q6PJT7); test: Alpha Screen assay of biotinylated poly(A) RNA:GST-MSUT2 binding; conditions: orthogonal dose-response validation
T3 construct: Targeted construct consisted of the c-terminal end (dark blue and amino acids 601-736) of MSUT2; made in house; host or cells: E. coli BL21 (DE3)
T3 sequence (Q6PJT7 601-736): T2 sequence (Q6PJT7 601-736)
Procedure: Alpha Screen Assay. Samples were set up in 384 well Perkin Elmer white opaque-bottom plates (PE06). A total reaction volume of […] was plated in 384 format using a CyBio Well Vario (6 μL of donor beads (10 μg/mL), 3 μL biotinylated RNA (250 nM), 3 μL GST-MSUT2 protein (250 nM) per well). 50 nL of compounds were transferred to wells via CyBio Vario equipped with Pin Tool. This mixture was incubated at room temperature for 30 minutes away from light. Next 3 μL of acceptor beads (1.25 μg/mL) was added. Plates were incubated at room temperature away from light for 60 minutes and subsequently read on a Perkin Elmer EnVision multimode microplate reader equipped with stackers using a standard 384-well Alpha Assay software protocol.
Results. Alpha Screen design and underlying principle. Alpha Screen technology relies on donor beads, coated with a hydrogel excitable by 680 nm, brought within close proximity to an acceptor bead leading to light emission and detection. In this assay, streptavidin coated donor beads tightly bind to biotinylated-poly(A) RNA while the glutathione-coated acceptor bead binds to GST-tagged MSUT2 protein. […] When this interaction is blocked by an inhibitor, the proximity threshold for donor and acceptor beads is not met, singlet oxygen transference cannot occur, and light is not emitted by the acceptor bead (FIG. 1a).
Identification and validation of MSUT2 inhibitory compounds from NIHCC library. The single-point primary screen was conducted in duplicate and utilized the FP assay conditions determined herein (e.g., 125 nM MSUT2 RNABP and 10 nM FAM-RNA probe) with 10 μM library compounds added in a 96-well format. […] Compound specificity was empirically tested by counter screening against PABPN1, a regulator of the length of mRNA poly(A) tails (Apponi, L. H. et al. Hum Mol Genet 19, 1058-1065, (2010); and Benoit, B. et al. Dev Cell 9, 511-522, (2005)). IC50 of each of the previous 8 compounds was determined for PABPN1 using fluorescence polarization (FIG. 11), and a specificity ratio determined (Table 3). An Alpha Screen (AS) assay was developed as an orthogonal screen. Briefly, in this screen, biotinylated RNA binds streptavidin-coated donor beads, while GST-MSUT2 ZF binds glutathione-coated acceptor beads. […] Toxicity of these compounds in a HEK cell model was determined using a standard Promega Cell Titer Glo assay.
Alpha Screen Assay. […] The plate was then incubated again at room temperature away from light for 60 minutes and subsequently read on a Perkin Elmer EnSight multimode microplate reader using a standard 96-well Alpha Assay protocol.

[2] = biological target: 3′,5′-cyclic phosphodiesterase; conditions: read-out: Ki (nM) for Known Target; cited from earlier work
[3] = system: rat model of chronic cerebral hypoperfusion; conditions: cited from earlier work
elderly patients = conditions: 10 year study of 20,215 elderly patients; cited from earlier work

Procedure for HEK-293 cells: Cell culture and cytotoxicity screen. […] Cell viability was assessed as using Promega Cell Titer Glo (Promega G7570) per manufacturer protocol. Briefly, HEK-293 cells were grown to 70% confluence in a 96 well plate were treated with indicated concentrations of compounds and incubated for 72 hours at 37° C. Plates were read for luminescence on Perkin Elmer Enspire Alpha.
Cell viability was assessed. Briefly, HEK-293 cells grown to 70% confluence in a 96 well dish were treated with varying concentrations of compound (final concentration of 2% DMSO) and incubated for 72 hours. Next, Promega Cell Titer Glo assay was used to assess viability per manufacturer instructions (Promega G7570).

Compound: O=S(=O)(O)c1cc(N=C=S)ccc1C=Cc1ccc(N=C=S)cc1S(=O)(=O)O [4,4-diisothiocyanostilbene-2,2′-sulfonic acid]
toxicity (effect on cell viability) (HEK-293 cells): relatively non-toxic at the doses tested

IC50 (PABPN1; fluorescence polarization counter screen, unit inferred, read-out: IC50PABPN1): 50.6 µM
PABPN1/MSUT2 specificity ratio (PABPN1; ratio of FP IC50s): 51.07
Ki (MSUT2 ZF; calculated by Cheng Prusof equation Ki=(IC50)/[(L/Kd)+1], FP dose response, read-out: Ki (nm) for MSUT2): 978 nM
IC50 (MSUT2 ZF; read-out: IC50MSUT2): 990 nM
inhibition activity by Alpha Screen (AS) (GST-MSUT2): dose-dependent inhibition activity
Compound: CC(C)/N=c1\cc2n(-c3ccc(Cl)cc3)c3ccccc3nc-2cc1Nc1ccc(Cl)cc1 [Clofazimine]
crossing of the blood brain barrier [1]: unable to cross the blood brain barrier
interaction with poly(A) (poly(A)): little interaction

Ki (nm) for MSUT2 (MSUT2 ZF; calculated by Cheng Prusof equation Ki=(IC50)/[(L/Kd)+1], FP dose response): failed DR
Compound: OCCN(CCO)c1nc(N2CCCCC2)c2nc(N(CCO)CCO)nc(N3CCCCC3)c2n1 [Dipyridamole]
Ki [2]: 1000 nM

Compound: CNCC[C@H](Oc1cccc2ccccc12)c1cccs1 [Duloxetine]
IC50PABPN1 (PABPN1; fluorescence polarization counter screen, unit not given): None
neuronal loss in the hippocampus [3]: attenuated neuronal loss in the hippocampus
risk of dementia (elderly patients): associated with reduced risk of dementia
inhibition activity by Alpha Screen (AS) (GST-MSUT2): dose-dependent inhibition activity
